In patent US9758477B2, “Sulfamoylbenzamide derivatives as antiviral agents against HBV infection” (priority 2011, dated 2017):

Legend:
[1] = Cytotoxicity in HepDES19 cells, MTT assay; format: cell-based; details: human, Table 10, HepDES19 cells, unit inferred
Description: Determination of cytotoxicity of compounds of the disclosure in human hepatoma-derived cell lines, HepDES19 cells were seeded into 96-well plates at a density of […] cells per well and cultured in DMEM/F12 media with 10% fetal bovine serum in the absence of tetracycline. One day after seeding, cells were left untreated or treated with a serial dilution of testing compounds, ranging from 50 μM to 0.39 μM, for 6 days. The cell viability was measured by a MTT assay, following procedure provided by the manufacturer (Promega). The cytotoxicity of a compound was expressed as the concentration of compound that reduces the viability of the cells by 50% (CC50).

encapsidated pgRNA = test: Encapsidated pgRNA by Northern blot in AML12HBV10 cells; format: cell-based, Hepatitis B virus (HBV); details: 2 days, FIG. 3 panel C, Bay41-4109 5 μM, AT-61 25 μM
Description: To obtain mechanistic insight of the compounds of present invention against HBV, AML12HBV10 cells cultured in the 12-well plates were treated with a series of concentrations of DVR-1, DVR-56 or DVR-23 for two days in the absence of tetracycline (Guo et al., 2007). As positive controls, the cells were also treated with Bay41-4109 (5 μM) or AT-61 (25 μM), the known HBV nucleocapsid assembly effectors that either bind to HBV core protein dimmer to misdirect its interaction and prevent capsid formation (Bay41-4109) (Deres et al., 2003: Stray and Zlotnick, 2006), or interact with a core assembly intermediate and promote the formation of empty capsids (AT-61) (Feld et al., 2007; Katen et al., King et al., 1998). The amounts of intracellular viral mRNA, encapsidated pgRNA, capsids and nucleocapsid-associated HBV DNA were analyzed with the methods detailed below.
Determination of encapsidated pgRNA: AML12HBV10 cells were lysed by addition of 600 μl of lysis buffer (50 mM Tris-HCl [pH 7.5], 1 mM EDTA, 150 mM NaCl, 1% NP-40) into each well of 12-well plates. The nuclei were removed by centrifugation at 5,000 g for 10 minutes. One-half of the sample was mixed with 6 U of micrococcal nuclease (Pharmacia) and 15 μl of 100 mM CaCl2 and incubated for 15 minutes at 37° C. to digest free nucleic acids. The reaction was stopped with 6 μl of 0.5 M EDTA, and capsids were precipitated by adding 125 μl of 35% polyethylene glycol 8000 in 1.75 M NaCl to the reaction and incubating in ice for 30 minutes, followed by centrifugation at 6,000 g for 10 minutes at 4° C. Pellets were re-suspended in 50 μl of TNE buffer (10 mM Tris-HCl [pH 8], 100 mM NaCl, 1 mM EDTA), pgRNA was extracted by the addition of 1 ml of Trizol reagent. The encapsidated pgRNA were electrophoresed through a 2.2 M formaldehyde-1% agarose gel, transferred to a nylon membrane, and immobilized by UV cross-linking (Stratagene). Hybridization was performed with an alpha-^32P-UTP labeled riboprobe specific for plus strand of HBV genome.

Compound	CC50 at 6 days [1] [µM]	level of encapsidated pgRNA (encapsidated pgRNA)
O=C(Nc1ccc(F)c(F)c1)c1cc(S(=O)(=O)NC2CCCC2)ccc1F [DVR-56, 5-cyclopentylsulfamoyl-N-(3,4-difluoro-phenyl)-2-fluoro-benzamide]	> 50	dose-dependently reduced
CCC(C)NS(=O)(=O)c1ccc(F)c(C(=O)Nc2ccc(F)c(F)c2)c1 (stereo not shown) [DVR-23, 5-sec-butylsulfamoyl-N-(3,4-difluoro-phenyl)-2-fluoro-benzamide]	> 50	dose-dependently reduced
